Measurements as given in EPA's ToxValDB 9.5.
“And” between values parts separate entries of the source, which are not always exact repeats. Identical values can stand only once.

Tests used:
Rattus norvegicus [1] = conditions: repeat dose other; oral
Rattus norvegicus [2] = conditions: oral
Rattus norvegicus [3] = conditions: oral; remark: listed apart in the source
Rattus norvegicus [4] = conditions: oral; remark: listed apart in the source
Rattus norvegicus [5] = conditions: M/F
Rattus norvegicus [6] = conditions: Hershberger; duration: 10 days; oral; gavage; Sprague-Dawley; active + Negative + Antiandrogenic + anti-androgenic + significant decrease in serum testosterone at 800 (49% decrease at 400 NS) / …
Rattus norvegicus [7] = conditions: oral; remark: listed apart in the source
Mus musculus [8] = conditions: subchronic; oral; M/F; hepatotoxicity
Mus musculus [9] = conditions: subchronic; duration: 90 days; oral; gavage; M/F; CD1; hepatic
Rattus norvegicus [10] = conditions: oral; for NOAEL: duration: 10 days, diet, Sprague-Dawley
Rattus norvegicus [11] = conditions: subchronic; duration: 90 days; oral; diet; M/F; Sprague-Dawley; Urinalysis: Pro increase + Absolute Organ Weight: Kidney increase + Relative Organ Weight: Liver increase, Kidney increase + Necropsy: …
[12] = chronic, M/F, body weight depression
[13] = developmental, duration: 2 years, diet, M/F, reduced body weight gain, reduced pup weight and parental food consumption
[14] = developmental, M/F, reduced pup weight and parental food consumption
[15] = subchronic, gavage, M, Induction of hepatic enzymes + liver histopathology
[16] = chronic, duration: 2 years, diet, M/F, Crl:CD(SD), reduced weight gain
[17] = subchronic, M/F, liver and kidney pathology

[Cr+6] [Chromium (VI) ion]
LOAEL (Rattus norvegicus [1]): 13.1 mg/kg-day
NOAEL (Rattus norvegicus [1]): 3.28 mg/kg-day
NOAEL (Rattus norvegicus [2]; chronic, duration: 1 years, drinking water, M/F, no effects): 25 mg/L
NOAEL (Rattus norvegicus [3]; chronic, duration: 1 years, drinking water, None Observed): 2.4 mg/kg-day

CC(O)CO (centres undefined) [1,2-Propylene glycol]
LOAEL (Rattus norvegicus [4]; subchronic, duration: 5 weeks, drinking water, M, Wistar, Hematologic): 5200 mg/kg-day
LOAEL (Rattus norvegicus [5]; subchronic, duration: 13 weeks, inhalation, nose only, Sprague-Dawley, respiratory): 159 mg/m3

O=C1CCCCC1 [Cyclohexanone]
LOAEL (Rattus norvegicus [2]; [12]): 910 mg/kg-day
NOAEL (Rattus norvegicus [2]; [12]): 462 mg/kg-day
NOAEL (Rattus norvegicus [4]; chronic, duration: 25 weeks, drinking water, M, Fischer 344, Whole Body Effects): 731 mg/kg-day

CCc1cccc(C)c1N(C(=O)CCl)C(C)COC (centres undefined) [Metolachlor]
LEL (Rattus norvegicus [2]; [13]): 150 mg/kg-day
NOEL (Rattus norvegicus [2]; [13]): 15 mg/kg-day
LEL (Rattus norvegicus [2]; [14]): 50 mg/kg-day
NOEL (Rattus norvegicus [2]; [14]): 15 mg/kg-day
LOEL (Rattus norvegicus [6]): 800 mg/kg-day and 500 mg/kg-day
NOEL (Rattus norvegicus [6]): 400 mg/kg-day and 300 mg/kg-day
NOAEL (Rattus norvegicus [3]; chronic, duration: 2 years, diet, Whole body: Decreased weight gain): 23.4 mg/kg-day

O=C1[O][Sb-]23[O]C(=O)C([O]2)C2[O][Sb-]4([O]C(=O)C([O]4)C1[O]3)[O]C2=O.[K+].[K+]
LOAEL (Rattus norvegicus [4]; chronic, duration: 2 years, drinking water, M/F, Long-Evans, Whole Body Effects): 0.35 mg/kg-day

OCC(O)CCl (centres undefined) [3-Chloro-1,2-propanediol]
LOEL (Rattus norvegicus [7]; chronic, drinking water, Fischer 344, Kidney proximule tubule hyperplasia): 1.1 mg/kg-day

Brc1cc(Oc2cc(Br)c(Br)c(Br)c2Br)c(Br)c(Br)c1Br [Octabromodiphenyl ether]
LOAEL (Rattus norvegicus [2]; [15]): 5 mg/kg-day
NOAEL (Rattus norvegicus [2]; [15]): 2.51 mg/kg-day
NOAEL (Rattus norvegicus [5]; subchronic, duration: 13 weeks, inhalation, nose only, Crl:CD(SD) BR, endocrine): 1.1 mg/m3
NOAEL (Rattus norvegicus [3]; subchronic, duration: 90 days, gavage, Liver: Histological changes): 2.5 mg/kg-day

[Ba+2].[Cl-].[Cl-] [Barium chloride]
NOAEL (Rattus norvegicus [1]): 5.1 mg/kg-day

O=C(NC(=O)c1c(F)cccc1F)Nc1cc(Cl)c(OC(F)(F)C(F)C(F)(F)F)cc1Cl (centres undefined) [Lufenuron]
NOAEL (Rattus norvegicus [7]; chronic, duration: 2 years, Tonic-clonic seizures, histopathological effects on lungs, liver, non-glandular stomach, intestines and urinary tract.): 1.93 mg/kg-day

c1cc2c3c(cccc3c1)CC2 [Acenaphthene]
LOAEL (Mus musculus [8]): 350 mg/kg-day
NOAEL (Mus musculus [8]): 175 mg/kg-day
LOAEL (Mus musculus [9]): 175 mg/kg-day

COC(=O)c1ccccc1C(=O)OC [Dimethyl phthalate]
LD50 (Rattus norvegicus [10]; acute): 6900 mg/kg
NOAEL (Rattus norvegicus [10]; developmental): > 3570 mg/kg-day
NOAEL (Rattus norvegicus [10]; reproduction developmental, F): 840 mg/kg-day
LOAEL (Rattus norvegicus [4]; short-term, duration: 1 weeks, diet, M, Wistar): 302 mg/kg-day

ClCCOCOCCCl [Bis(2-chloroethoxy)methane]
NOAEL (Rattus norvegicus [4]; subchronic, duration: 90 days, gavage, M/F, Sprague-Dawley, hepatic): 10 mg/kg-day

O=C1C=CC(=O)O1 [2,5-Furandione]
NOAEL (Rattus norvegicus [11]): < 100 mg/kg-day
NOAEL (Rattus norvegicus [2]; chronic, M/F, no effects): 10 mg/kg-day
LOAEL (Rattus norvegicus [2]; reproduction developmental, M/F, renal lesions): 20 mg/kg-day
NOAEL (Rattus norvegicus [3]; chronic, duration: 2 years, diet, Kidney: Lesions): 10 mg/kg-day

CC[n+]1c(-c2ccccc2)c2cc(N=NNc3cccc(C(=N)N)c3)ccc2c2ccc(N)cc21 [Isometamidium]
NOAEL (Rattus norvegicus [7]; subchronic, duration: 13 weeks, gavage, M/F, Crl:CD(SD) BR): 50 mg/kg-day

CN[C@@H]1[C@H](O[C@H]2[C@H](O[C@H]3[C@H](O)[C@@H](O)[C@H](N=C(N)N)[C@@H](O)[C@@H]3N=C(N)N)O[C@@H](C)[C@]2(O)CO)O[C@@H](CO)[C@H](O)[C@H]1O [Dihydrostreptomycin]
LOEL (Rattus norvegicus [7]; [16]): 10 mg/kg-day
NOEL (Rattus norvegicus [7]; [16]): 5 mg/kg-day

Oc1cc(Cl)c(Cl)cc1Cl [2,4,5-Trichlorophenol]
LOAEL (Rattus norvegicus [2]; [17]): 300 mg/kg-day
NOEL (Rattus norvegicus [2]; [17]): 100 mg/kg-day
NOAEL (Rattus norvegicus [4]; chronic, duration: 98 days, diet, M/F, Wistar, Hepatic, Urinary): 100 mg/kg-day
NOAEL (Rattus norvegicus [5]; chronic, duration: 98 days, oral, diet, Wistar, hepatic, renal): 100 mg/kg-day

O=C(c1ccc(Cl)cc1)c1ccc(Cl)cc1 [4,4'-Dichlorobenzophenone]
NOAEL (Rattus norvegicus [4]; subchronic, duration: 90 days, diet, M, Wistar): 86 mg/kg-day
